Here are results for 24 compounds from paper PMC8040286 (iScience, 2021).

Data set [1] has as its system GFP-expressing T. cruzi (Y) trypomastigotes released from infected CHO cells. Briefly: microbe, parasite or virus in culture. It counts as cell-based, Trypanosoma cruzi. As to conditions: for inhibition at 5 µM: read-out: Percentage inhibition of parasite release at 5 μM (low ROS).
The subject of data set [2] is T. cruzi epimastigotes (Y strain). Nature of the data set: microbe, parasite or virus in culture. Conditions: for IC50: Trypanosoma cruzi, 72 h, read-out: IC50 epimastigotes; for Selectivity Index (CC50 CHO/IC50 Epi): CC50 CHO / IC50 epimastigotes. Format: cell-based, Trypanosoma cruzi.
The nature of data set [3]: Cytotoxicity/antiproliferative MTT assay in CHO host cells. It counts as cell-based, hamster. As to conditions: Chinese hamster, CHO-K1 cells. A general note: Tetrazolium assays rely on reduction of a dye to a coloured formazan, in cell work by metabolically active cells.
Data set [4] deals with T. cruzi parasite release from trypomastigote-infected CHO cells. Nature of the data set: microbe, parasite or virus in culture. Format: cell-based. As to conditions: Trypanosoma cruzi; for IC50: read-out: IC50 inhibition of parasite release, serum-free conditions (high ROS), serum-free host cell culture as used in the screening.
In data set [5] the test system is CHO-K1 cells. Nature of the data set: Cytotoxicity/antiproliferative MTT assay in CHO host cells. It counts as cell-based, hamster. Conditions: read-out: CC50 CHO cells; 72-hr incubation; anthraquinones (Table 5).
The conditions of data set [6]: rodents; ref Li et al., 2020; cited from earlier work.
In data set [7] the target is casein kinase 1. As to conditions: read-out: IC50 casein kinase 1; ref Justiniano et al., 2014; cited from earlier work.
Where [8] appears, read: CC50 CHO cells, 72-hr incubation, anthraquinones (Table 5).
Setting [9] is: read-out: Percentage inhibition of parasite release (serum-free) at 5 μM, 5 μM, serum-free, 6 dpi, CHO host cells.
Setting [10] is: Cytotoxicity CC50 CHO cells without FBS, 72 hr, without FBS.
The mark [11] stands for this setting: Cytotoxicity CC50 CHO cells, 72 hr (Table 3).
Setting [12] is: read-out: IC50 inhibition of parasite release, 0.5% hiFBS (low ROS), 0.5% hiFBS, low ROS, GFP-expressing trypomastigotes, 6 dpi.

Read-outs that look alike come from different tables or passages of the source.

As for `O=C1c2cccc(O)c2C(=O)c2c(O)cccc21` [compound 8, Dantron], the inhibition – broadly, the drop in the measured response relative to a control, in per cent – at 5 µM in data set [1] (Trypanosoma cruzi, CHO) is 0%. Further, in data set [2], the IC50 (usually the concentration that inhibits the measured activity by half) is 5.3 ± 2.3 µM.
In the case of `O=C1c2ccccc2C(=O)c2c(O)c(O)cc(O)c21` [compound 3, Purpurin], in data set [1] (Trypanosoma cruzi, CHO), the inhibition at 5 µM stood at 48.3 ± 18.1%. In data set [1] (basis not stated, discussion), the “selectivity index (parasite release)” value is reported as 7. Further, the half-maximal inhibitory concentration (IC50) in data set [2] is > 50 µM. Besides, in data set [3] (setting [8]), the cytotoxic concentration (CC50) (usually the concentration that lowers cell viability or growth by half) at 72 h came out at 59.5 ± 10.1 µM.
Consider `C=C1[C@@H]2[C@H]3OC(=O)C(=C)[C@@H]3CCC(=C)[C@@H]2C[C@@H]1O` [Zaluzanin C], for which the IC50 in data set [2] was determined as 6.7 ± 0.7 µM. The inhibition at 5 µM in data set [4] (setting [9]) was found to be 71 ± 7.5%. Further, the CC50 at 72 h in data set [3] (setting [10]) was 19.2 ± 5.2 µM; in data set [3] (setting [11]), 6.6 ± 1.7 µM.
As to `O=C1c2ccc(O)cc2C(=O)c2ccc(O)cc21` [compound 9, Anthraflavic acid], the inhibition at 5 µM in data set [1] (Trypanosoma cruzi, CHO) was found to be 0%. In addition, the IC50 in data set [2] was > 50 µM.
Take `CC(=O)c1c(C)cc2cccc(O)c2c1O` [Nepodin]: the half-inhibitory concentration (IC50) in data set [2] worked out at 28.7 ± 13.3 µM. In addition, the inhibition at 5 µM in data set [4] (setting [9]) was ~30%. For the same compound, the 50% cytotoxic concentration (CC50) at 72 h in data set [3] (setting [11]) was > 100 µM.
For `O=C1c2ccccc2C(=O)c2c1ccc(O)c2O` [compound 4, Alizarin], the inhibition at 5 µM in data set [1] (Trypanosoma cruzi, CHO) stood at 0%. The concentration for half-maximal inhibition (IC50) in data set [2] is > 50 µM.
For `O=C(O)c1cc(O)c2c(c1)C(=O)c1cccc(O)c1C2=O` [compound 15, Rhein], the inhibition at 5 µM in data set [1] (Trypanosoma cruzi, CHO) is 0%. Also, the IC50 in data set [2] is > 50 µM.
On to `COc1cc(N)c2c(c1N)C(=O)c1ccccc1C2=O` [compound 17, Disperse Red11], for which the inhibition at 5 µM in data set [1] (Trypanosoma cruzi, CHO) came out at 46.8 ± 25.6%. For the same compound, in data set [2], the “Selectivity Index (CC50 CHO/IC50 Epi)” value is reported as >3 and the IC50 is 32.9 ± 13.9 µM. The CC50 at 72 h in data set [3] (setting [8]) is > 100 µM.
Consider `Cc1c(O)ccc2c1C(=O)c1ccccc1C2=O` [compound 14, 2-Hydroxy-1-methylanthraquinone], for which the inhibition at 5 µM in data set [1] (Trypanosoma cruzi, CHO) turned out to be 20.9 ± 9.7%. In data set [2], the IC50 was > 50 µM. In addition, in data set [3] (setting [8]), the CC50 at 72 h stood at 88.9 ± 8.9 µM.
Regarding `O=C1c2ccccc2C(=O)c2ccccc21` [compound 1, Anthraquinone], the inhibition at 5 µM in data set [1] (Trypanosoma cruzi, CHO) is 22.2 ± 9.6%. In addition, the IC50 in data set [2] was > 50 µM. Also, the CC50 at 72 h in data set [3] is > 100 µM.
For the compound `O=C1c2cccc(O)c2C(=O)c2c(O)cc(CO)cc21` [compound 11, Aloe-emodin], the inhibition at 5 µM in data set [1] (Trypanosoma cruzi, CHO) worked out at 44 ± 17.6%. In data set [2], the “Selectivity Index (CC50 CHO/IC50 Epi)” value is given as 2.9 and the IC50 amounted to 14.5 ± 5.6 µM. Moreover, the 50% cytotoxic concentration (CC50) at 72 h in data set [3] (setting [8]) is 42 ± 15.5 µM.
On to `Cc1cc2c(cc1O)C(=O)c1ccccc1C2=O` [compound 13, 2-Hydroxy-3-methylanthraquinone], for which the inhibition at 5 µM in data set [1] (Trypanosoma cruzi, CHO) was found to be 0%. The IC50 in data set [2] is > 50 µM.
In the case of `COc1cc(O)c2c(c1)C(=O)c1cc(C)cc(O)c1C2=O` [compound 12, Physcion], the inhibition at 5 µM in data set [1] (Trypanosoma cruzi, CHO) came to 0%. Moreover, in data set [2], the IC50 amounted to 6.4 ± 3.7 µM.
As for `C=C1C(=O)O[C@@H]2/C=C(\C)CC/C=C(\C)CC[C@@H]12` [Costunolide, (6R, 7S)-costunolide], the IC50 in data set [2] came out at 7.4 ± 5.9 µM. Further, in data set [4] (setting [9]), the inhibition at 5 µM was 0%. The CC50 at 72 h in data set [3] (setting [10]) turned out to be 35.4 ± 13.8 µM; in data set [3] (setting [11]), 10.9 ± 3.7 µM.
On to `COc1c(O)cc2c(c1O)C(=O)c1c(cc(C)c(O)c1OC)C2=O` [compound 18, Aurantio-obtusin], for which the inhibition at 5 µM in data set [1] (Trypanosoma cruzi, CHO) was found to be 0%. The IC50 in data set [2] is > 50 µM.
Taken in the same sequence, the figures for `CC(=O)Oc1cccc2c1C(=O)c1c(OC(C)=O)cc(C(=O)O)cc1C2=O` [compound 16, Diacerein] were 0% and > 50 µM.
As for `O=C(Cn1ccnc1[N+](=O)[O-])NCc1ccccc1` [BZN, benznidazole, reference compound], the inhibition at 5 µM in data set [1] (Trypanosoma cruzi, CHO) amounted to 84.9 ± 4.8%. Further, the concentration for half-maximal inhibition (IC50) was 1.4 µM in data set [1] (setting [12]), 13.8 ± 2.9 µM in data set [2] and 5000 to 9000 nM in data set [4]. Besides, the “Selectivity Index (CC50 CHO/IC50 Epi)” value in data set [2] is on record as >7. For the same compound, the cytotoxic concentration (CC50) at 72 h in data set [3] (setting [8]) and in data set [3] (setting [11]) was > 100 µM each time.
In the case of `O=C1c2ccccc2C(=O)c2c(O)ccc(O)c21` [compound 6, Quinizarin], the inhibition at 5 µM in data set [1] (Trypanosoma cruzi, CHO) stood at 68.5 ± 19.2%. In addition, in data set [2], the “Selectivity Index (CC50 CHO/IC50 Epi)” value is <1 and the IC50 is > 50 µM. It took 38 ± 16 µM to reach half-maximal cytotoxicity in data set [3] (setting [8]) (CC50 at 72 h). In addition, the CC50 in data set [5] came out at 38.1 ± 16 µM.
For `O=C1c2cccc(O)c2C(=O)c2cccc(O)c21` [compound 7, Anthrarufin], the inhibition at 5 µM in data set [1] (Trypanosoma cruzi, CHO) came to 0%. Besides, the concentration for half-maximal inhibition (IC50) in data set [2] is > 50 µM.
In the case of `C=C[C@@H](O)C#CC#C[C@@H](O)/C=C\CCCCCCC` [Falcarindiol], in data set [2], the IC50 was > 50 µM. In data set [4] (read-out: Percentage inhibition of parasite release (serum-free) at 5 μM), the inhibition at 5 µM is 0%. Further, the CC50 at 72 h in data set [3] is > 100 µM.
For the compound `Cc1cc(O)c2c(c1)C(=O)c1cc(O)cc(O)c1C2=O` [compound 2, Emodin], the oral bioavailability in data set [6] was 5–10%. The half-inhibitory concentration (IC50) in data set [1] (Trypanosoma cruzi, CHO, read-out: IC50 inhibition of parasite release, 0.5% hiFBS (low ROS), 0.5% hiFBS, low ROS, GFP-expressing trypomastigotes, 6 dpi) was 9.52 µM; in data set [1] (setting [12]) it was 9.5 µM; in data set [2], 14.1 ± 8.2 µM; in data set [4], 720 nM; in data set [7], 130 µM. For the same compound, the inhibition at 5 µM is 24.8 ± 12.9% in data set [1] (Trypanosoma cruzi, CHO) and 61.5 ± 18.2% in data set [4] (setting [9]). In data set [2], the “Selectivity Index (CC50 CHO/IC50 Epi)” value is recorded as >7. Besides, the cytotoxic concentration (CC50) at 72 h in data set [3] (setting [8]) and in data set [3] (setting [11]) was > 100 µM in each case.
In the case of `O=C1c2ccccc2C(=O)c2c1cc(S(=O)(=O)O)c(O)c2O` [compound 5, Alizarin Red S], the inhibition at 5 µM in data set [1] (Trypanosoma cruzi, CHO) was determined as 0%. Also, the IC50 in data set [2] was > 50 µM.
As for `Cc1cc(O)c2c(c1)C(=O)c1cccc(O)c1C2=O` [compound 10, Chrysophanol], in data set [1] (Trypanosoma cruzi, CHO), the inhibition at 5 µM was 22.6 ± 17.2%. Also, in data set [2], the “Selectivity Index (CC50 CHO/IC50 Epi)” value is given as 5.4 and the half-maximal inhibitory concentration (IC50) was 6.6 ± 3.5 µM. The CC50 at 72 h in data set [3] (setting [8]) is 35.7 ± 7.4 µM.
For `C=C1CC[C@H]2C(=C)CC[C@H]3C(=C)C(=O)O[C@@H]3[C@@H]12` [Dehydrocostus lactone], in data set [2], the IC50 was determined as 1.4 ± 0.4 µM. In addition, in data set [4] (setting [9]), the inhibition at 5 µM worked out at 86.2 ± 4.1%. For the same compound, the results for the CC50 at 72 h in data set [3] (setting [10]) and in data set [3] (setting [11]) were 12.2 ± 0.5 µM and 5.8 ± 1.9 µM, respectively.
